Reference: article PMC8604796 (Computers in Biology and Medicine, 2021)
pIC50: −log10 of the molar value. Read-outs that look alike come from different tables or passages of the source. Numbered stars: 1 amine (or outer) side, 2 acyl side, 3 side chain; on linkers, the order of the positions; unused ones are H or OH. Bridge positions count the residues as written; N and C are the ends. Square brackets hold non-standard residues; d marks the D form. Peptide text beside a SMILES is read from it. * marks the point of attachment. pTerphenylCO(4''-OnC5H11) = CCCCCOc1ccc(-c2ccc(-c3ccc(C(=O)*)cc3)cc2)cc1; Orn(4R-OH,5R-OH) = O=C([C@H](C[C@@H](O)[C@@H](O)N[*:3])N[*:1])[*:2]; hTyr(3S-OH,4S-OH) = N[C@H](C(=O)O)[C@H](O)[C@@H](O)c1ccc(O)cc1; Pro(3S-OH,4S-Me) = C[C@H]1CN[C@H](C(=O)O)[C@H]1O; Hyp = O=C(O)[C@@H]1C[C@@H](O)CN1

Assays:
SARS-CoV-2 PLpro = SARS-CoV-2 PLpro (Severe acute respiratory syndrome coronavirus 2, UniProt P0DTD1); experiment: biochemical
SARS-CoV-2 virus = conditions: read-out: IC50, in-vitro antiviral activity against the SARS-CoV-2 virus; cited from earlier work

CCCCCOc1ccc(-c2ccc(-c3ccc(C(=O)N[C@H]4C[C@@H](O)[C@@H](O)NC(=O)[C@@H]5[C@@H](O)[C@@H](C)CN5C(=O)[C@H]([C@@H](C)O)NC(=O)[C@H]([C@H](O)[C@@H](O)c5ccc(O)cc5)NC(=O)[C@@H]5C[C@@H](O)CN5C(=O)[C@H]([C@@H](C)O)NC4=O)cc3)cc2)cc1 [Anidulafungin] ({pTerphenylCO(4''-OnC5H11)}-[Orn(4R-OH,5R-OH)]T[Hyp][hTyr(3S-OH,4S-OH)]T[Pro(3S-OH,4S-Me)]; lactam 1-C)
inhibitory activity against PLpro (in words) (SARS-CoV-2 PLpro; Ubiquitin-Rhodamine 110 Gly fluorescence intensity assay): low inhibitory activity
pIC50 (SARS-CoV-2 virus): 5.33

Cc1cc2nc3c(=O)[nH]c(=O)nc-3n(C[C@H](O)[C@H](O)[C@H](O)COP(=O)(O)OP(=O)(O)OC[C@H]3O[C@@H](n4cnc5c(N)ncnc54)[C@H](O)[C@@H]3O)c2cc1C [FAD disodium]
pIC50 (SARS-CoV-2 PLpro; read-out: IC50 against SARS-CoV-2 PLpro): 4.91

CC(C)(C)[C@@H]1NC(=O)O[C@@H]2CCC[C@H]2OC/C=C/C(F)(F)c2nc3ccccc3nc2O[C@@H]2C[C@@H](C(=O)N[C@]3(C(=O)NS(=O)(=O)C4(C)CC4)C[C@H]3C(F)F)N(C2)C1=O [Glecaprevir]
pIC50 (SARS-CoV-2 PLpro): 4.43

CO[C@H]1/C=C/O[C@@]2(C)Oc3c(C)c(O)c4c(O)c(c(/C=N/N5CCN(C6CCCC6)CC5)c(O)c4c3C2=O)NC(=O)/C(C)=C\C=C\[C@H](C)[C@H](O)[C@@H](C)[C@@H](O)[C@@H](C)[C@H](OC(C)=O)[C@@H]1C [Rifapentine]
pIC50 (SARS-CoV-2 PLpro): 4.82
